The values that follow come from patent US10857082B2, “Diarylalkanes as potent inhibitors of binuclear enzymes” (Unigen, Inc., priority 2004, dated 2020).

For one data set, the target named is mushroom tyrosinase (Agaricus bisporus, UniProt C7FF04). The experiment in a line: Tyrosinase inhibition assay (L-DOPA to dopachrome, absorbance at 450 nm). The data set is classed as biochemical. How it is done: (§1) A tyrosinase inhibition assay was carried out using the method reported by Jones et al. (2002) Pigment. Cell Res. 15:335. Using this method, the conversion of L-Dopa, a substrate of tyrosinase, into dopachrome is followed by monitoring absorption at 450 nm. Tyrosinase was prepared in 50 mM potassium phosphate buffer, pH 6.8 (assay buffer) at 2000 U/ml and stored at −20° C. in 1 ml aliquots prior to use. For use in assays, stock enzyme solutions were thawed and diluted to 200 U/ml with assay buffer. A 2 mM working solution of substrate, L-DOPA, was prepared in assay buffer for each assay. Samples were dissolved in 10% DMSO (0.5 ml) and diluted to 5 ml with assay buffer. The reaction mixture consisted of 0.050 ml 2 mM L-DOPA, 0.050 ml 200 U/ml mushroom tyrosinase and 0.050 ml inhibitor. Reaction volume was adjusted to 200 μl with assay buffer. Assays were performed in 96 well Falcon 3097 flat-bottom microtiter plates (Beckton Dickinson, N.J.). Appearance of dopachrome was measured with a WALLAC 1420 Multilable Counter (Turku, Finland). Average velocity was determined from linear enzyme rate as measured by change in absorbance (ΔA450) at 450 nm per minute. Percent inhibition of tyrosinase by test samples was determined by comparison of absorbance of samples versus control using formula (I): (Negative control absorption-sample absorption)/Negative control absorption×100 (1)
Inhibition of tyrosinase by synthetic diarylalkanes was measured using the method described in Example 2. The IC50 value of each sample was calculated using kinetics software to verify that the reaction was linear at a specified time and concentration.

The target of a further data set is DOPA oxidase activity. Conditions: cited from earlier work.
A further data set has as its system tyrosinase. Kind of data set: Enzyme inhibition kinetics with L-DOPA as substrate. The class given is biochemical, mushroom. As to the method: as §1, with “A 2 mM working solution of substrate, L-DOPA, was prepared in assay buffer for each assay.” left out, “The reaction mixture consisted of 0.050 ml 2 mM L-DOPA, 0.050 ml 200 U/ml mushroom tyrosinase and 0.050 ml inhibitor.” left out

The subject of data set [1] is B16 F1 cells. Kind of data set: Inhibition of melanin production in B16 F1 cells with β-MSH induction. The data set is classed as cell-based, mouse. The source says: (§2) Color development was visually monitored each morning.
Data set [2] deals with B16 F1 cells. Kind of data set: Inhibition of melanin production in B16 F1 cells without β-MSH induction (endogenous). The class given is cell-based, mouse. Conditions: for Inhibition of melanin production relative to kojic acid, in words: B-16 cell line model, with and without β-MSH induction.
Source text: as §2

The subject of data set [3] is B16 F1 cells. The experiment in a line: Cell toxicity assay, lactate dehydrogenase (LDH). As to the method: The inhibition of melanin production was evaluated using two different assays. In the first assay, the inhibition of melanin production was evaluated without induction by β-MSH; whereas in the second assay the inhibition of melanin production was measured with β-MSH induction in cell culture medium. Briefly, B16 F1 cells (ATCC #CRL-622) were grown to confluency and then seeded at 40,000 cells per well. The cells were allowed to attach overnight at 37° C. in a humidified environment containing 5% CO2. On day 2, inhibitors were added to the cells at concentrations ranging from 0-1000 μM in triplicate and allowed to incubate for four days. The amount of β-MSH required to induce melanin formation was determined by the addition of hormone at concentrations ranging from 0-1000 nM in ten-fold increments. Once the proper β-MSH concentration was determined, cells were seeded as above, allowed to attach overnight and then co-incubated with tyrosinase inhibitors at concentrations ranging from 0-1000 μM. Color development was visually monitored each morning. After the development of color, 200 μl of cell supernatant was removed from each well and absorbance was measured at 450 nm. The resulting readings were used to determine the IC50 for melanin formation in the cell assay with and without β-MSH induction. For an initial comparison of cell toxicity, the 250 μM treated wells were used to perform a lactate dehydrogenase assay (LDH). LDH is a metabolic enzyme that leaks out of damaged or dead cells. The enzyme converts a chromophore in the presence of NAD^+ to yield a color change that can be monitored spectrophotometrically.
The compound treated wells were used to perform a lactate dehydrogenase assay (LDH). LDH is a metabolic enzyme that leaks out of damaged or dead cells. The enzyme converts a chromophore in the presence of NAD^+ to yield a color change that can be monitored spectrophotometrically. The cytotoxicity was examined at a concentration of 250 μM. […] It should be noted however, that cytotoxicity at only one concentration (250 μM) was tested.

Data set [4] concerns B16 F1 murine melanoma cells. The note with it: read-out: IC50, melanin biosynthesis; cited from earlier work.
In data set [5] the target is human tyrosinase hydroxylase activity (Homo sapiens (Human), UniProt P14679). Conditions: cited from earlier work.
Where [6] appears, read: Table 2, synthetic diarylalkanes and/or diarylalkanols, read-out: Tyrosinase Inhibition (IC50).
Setting [7] is: read-out: IC50 for inhibition of tyrosinase.
[8] abbreviates: Mus musculus, B16 F1 cells, with β-MSH induction, read-out: IC50 for melanin formation, induced experiment.
The mark [9] stands for this setting: Table 3, mouse B16 F1 cells, β-MSH induction, read-out: MSH Induced Melanin Inhibition IC50.
Setting [10] is: Mus musculus, B16 F1 cells, without β-MSH induction, read-out: IC50 for melanin formation, endogenous experiment.
The mark [11] stands for this setting: Table 3, mouse B16 F1 cells, no β-MSH, read-out: Endogenous Melanin Inhibition IC50.

“Also recorded” adds a separate entry of the source. Like-named read-outs stand apart in the source and are kept apart here.

Chain of mushroom tyrosinase (C7FF04 1-392 limits assumed): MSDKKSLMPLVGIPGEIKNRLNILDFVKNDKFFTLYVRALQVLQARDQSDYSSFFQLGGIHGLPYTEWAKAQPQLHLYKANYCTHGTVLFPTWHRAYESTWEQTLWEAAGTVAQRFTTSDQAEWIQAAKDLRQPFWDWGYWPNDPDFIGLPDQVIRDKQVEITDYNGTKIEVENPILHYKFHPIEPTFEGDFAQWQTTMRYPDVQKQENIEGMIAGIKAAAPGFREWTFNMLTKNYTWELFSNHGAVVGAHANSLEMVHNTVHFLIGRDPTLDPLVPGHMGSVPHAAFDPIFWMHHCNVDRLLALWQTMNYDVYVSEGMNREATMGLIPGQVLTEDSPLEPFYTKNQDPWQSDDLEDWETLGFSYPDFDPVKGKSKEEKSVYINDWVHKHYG
Chain of human tyrosinase hydroxylase activity (P14679 19-529): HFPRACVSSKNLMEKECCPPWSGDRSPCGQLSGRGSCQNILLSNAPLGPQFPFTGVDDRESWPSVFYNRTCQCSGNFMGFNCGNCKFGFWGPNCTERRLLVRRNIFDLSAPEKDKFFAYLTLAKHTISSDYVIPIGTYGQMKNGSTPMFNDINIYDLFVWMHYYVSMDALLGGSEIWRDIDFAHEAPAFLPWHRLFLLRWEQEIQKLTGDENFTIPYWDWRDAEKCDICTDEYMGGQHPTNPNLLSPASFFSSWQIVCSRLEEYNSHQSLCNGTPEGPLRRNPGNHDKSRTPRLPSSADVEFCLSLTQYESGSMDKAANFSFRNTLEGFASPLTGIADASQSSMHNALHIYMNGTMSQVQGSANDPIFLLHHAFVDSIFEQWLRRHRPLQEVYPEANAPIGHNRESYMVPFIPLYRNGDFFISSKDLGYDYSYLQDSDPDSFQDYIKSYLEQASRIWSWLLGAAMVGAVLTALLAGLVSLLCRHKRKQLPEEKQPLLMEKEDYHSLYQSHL

Regarding `COc1cc(CCC(O)c2ccc(O)cc2O)ccc1O` (centres unmarked) [1-(2,4-dihydroxyphenyl)-3-(3′-methoxy-4′-hydroxyphenyl)-1-propanol], on mushroom tyrosinase, the “Tyrosinase inhibitory activity in words” value is “quite strong tyrosinase inhibitory activity”.

The IC50 is the point on the concentration scale where inhibition reaches its midpoint. In the case of `COc1ccc(C(O)CCc2ccc3c(c2)OCCCCO3)c(O)c1` (centres unmarked) [1-(2-hydroxy-4-methoxyphenyl)-3-(2′,3′,4′,5′-tetrahydro-benzo(b)dioxoin-8′-yl)-1-propanol], the IC50 on mushroom tyrosinase (setting [6]) and on mushroom tyrosinase (setting [7]) was 72 µM each time.

Take `COc1ccc(C(O)CCc2ncc(Cl)n2C)c(O)c1` (centres unmarked) [3-(5′-chloro-1′-methyl-1′-hydro-imidazol-2′-yl)-1-(2-hydroxy-4-methoxyphenyl)-1-propanol]: the IC50 at mushroom tyrosinase (setting [6]) and on mushroom tyrosinase (setting [7]) was 225 µM each time.

In the case of `O=c1cc(CO)occ1O` [Kojic acid, kojic acid, reference compound], the IC50 on DOPA oxidase activity is 410 µM; in the data set on B16 F1 cells [1] (setting [8]), 67 µM; in the data set with B16 F1 cells [1] (setting [9]), 67 µM; in the data set on B16 F1 cells [2] (setting [10]), 170 µM; in the data set on B16 F1 cells [2] (setting [11]), 170 µM. For the same molecule, the “Time until tyrosinase activity was totally restored following incubation” value with tyrosinase was found to be 1 h. Besides, in the data set on B16 F1 cells [3] (250 μM treated wells), the “Cell Toxicity (LDH)” value stood at 0.260.

Regarding `COc1ccc(O)c(CCCc2ccc(O)cc2OC)c1` [UP288, 1-(2-methoxy-4-hydroxyphenyl)-3-(2′-hydroxy-5′-methoxyphenyl)-propane], the “Tyrosinase inhibitory activity in words” value at mushroom tyrosinase was “as potent a tyrosinase inhibitor as kojic acid; also recorded: strong tyrosinase inhibition activity”. Besides, the IC50 in the data set on B16 F1 cells [1] (setting [9]) was found to be 105 µM; in the data set on B16 F1 cells [2] (setting [11]) it was 108 µM. The “Inhibition of melanin production relative to kojic acid, in words” value in the data set on B16 F1 cells [2] was “comparable to kojic acid; also recorded: at least as good, if not better inhibitors than kojic acid”. In addition, in the data set with B16 F1 cells [3] (mouse, 4 days, 250 μM), the “Cell Toxicity (LDH)” value worked out at 0.315.

As for `COc1ccc(CCCc2ccc(O)cc2O)c(OC)c1C` [UP302a, 1-(3-methyl-2,4-dimethoxyphenyl)-3-(2′,4′-dihydroxyphenyl)-propane], the “Tyrosinase inhibitory activity in words” value on mushroom tyrosinase was “strong tyrosinase inhibitory activity”. In addition, the “Resumption of tyrosinase activity after incubation with inhibitor” value in the data set on tyrosinase was “not resumed for several days”. Further, the “Type of tyrosinase inhibition” value with tyrosinase (inhibitor 0, 261, 522, 1044 nM, L-DOPA 0.75, 1.25, 2.5 mM) was “powerful competitive inhibitor”. In the data set on B16 F1 cells [1] (B-16 cell line), the “Inhibition of MSH induced melanin production relative to kojic acid” value is on record as “significantly greater than kojic acid”. The IC50 in the data set with B16 F1 cells [1] (setting [8]) stood at 40 µM; with B16 F1 cells [1] (setting [9]), 40 µM; in the data set with B16 F1 cells [2] (setting [10]), 28 µM; with B16 F1 cells [2] (setting [11]), 28 µM. Moreover, the “Inhibition of melanin production relative to kojic acid, in words” value with B16 F1 cells [2] is “at least as good, if not better inhibitors than kojic acid”. For the same molecule, in the data set on B16 F1 cells [3] (mouse, 4 days, 250 μM), the “Cell Toxicity (LDH)” value is 0.265.

In the case of `CC(=O)Cc1cc(=O)c2c(C)cc(O)c([C@@H]3O[C@H](CO)[C@@H](O)[C@H](O)[C@H]3O)c2o1` [aloesin], the IC50 is 700 µM on DOPA oxidase activity, 167 µM in data set [4] and 920 µM in data set [5].

With `OC[C@H]1O[C@@H](Oc2ccc(O)cc2)[C@H](O)[C@@H](O)[C@@H]1O` [arbutin], the IC50 on DOPA oxidase activity was 3020 µM.

Regarding `COc1ccc(O)c(C(O)CCc2ccc(OC)c(OC)c2)c1` (stereo not drawn) [l-(2-hydroxy-5-methoxyphenyl)-3-(3′,4′-dimethoxyphenyl)-1-propanol], the IC50 on mushroom tyrosinase (setting [6]) turned out to be 30 µM.
